For assay [1], the system named is subjects with PSC and suspected liver fibrosis. Kind of assay: Phase 2a INTEGRIS-PSC: transient elastography (FibroScan) liver stiffness. In kind it is in vivo, human. To be noted: 320 mg, Week 24, compared to an increase on placebo, Example B-5. An excerpt:
Transient elastography (TE) utilizes an ultrasound shear wave to assess the elasticity of the liver, that is, how “stiff” the liver tissue is. Fibrosis causes stiffening or hardening of tissue, and TE can be used to diagnose fibrosis and determine the degree of fibrosis. The FibroScan® device (FibroScan® is a registered trademark of ECHOSENS, Paris, France, for medical equipment and software) can be used for TE. (Kemp W, Roberts S., Aust Fam Physician. 2013 July; 42(7):468-71; and Ozturk A. et al., Abdom Radiol (NY), 2022 September; 47 (9): 3037-3050; each of which are hereby incorporated by reference in their entireties).
Each subject underwent an ultrasound-based transient elastography (FibroScan®) assessment at the screening and Week 12 study visits (Parts 1 and 2) and will undergo an ultrasound-based transient elastography (FibroScan®) assessment at the screening, at Week 12 study visits, and at Week 24 (Part 3 only). FibroScan® is a noninvasive technique that uses ultrasound-based transient elastography (TE) to assess liver stiffness measurement (LSM) and determine likelihood of clinically meaningful liver fibrosis.
The LSM, as assessed by TE, is expressed in kilopascals (kPa). Larger values (normal range approximately between 2 and 7 kPa) indicate a greater likelihood of clinically meaningful liver fibrosis. See H. Ehlken, et al. (2016) PloS ONE 11 (10): e0164224 and C. […]

For assay [2], the system named is BALB/c.Mdr2−/− mouse model of biliary fibrosis. Kind of assay: Liver and kidney biochemistries in serum (ALT, ALP, total bilirubin). Particulars: 6 weeks. Type of assay: in vivo. An excerpt:
The tissue source is BALBc.Mdr2-/−male mice that were 6 weeks old. The Mdr2(abcb4)−/− mouse model of sclerosing cholangitis has been previously described and is a model of spontaneously progressive hepatic fibrosis in mice with deletion of the biliary phospholipid flippase on fibrosis-susceptible background (Mdr2(abcb4)^−/−. BALB/c mouse). See N. Ikenaga, et al. (2015) Am J Pathol. 185 (2): 325-334, the entire contents of which are hereby incorporated by reference in their entirety.
(S)-4-((2-methoxyethyl)(4-(5,6,7,8-tetrahydro-1,8-naphthyridin-2-yl)butyl)amino)-2-(quinazolin-4-ylamino)butanoic acid (or PBS) was dosed once daily orally at 100 mg/kg, 300 mg/kg or 1000 mg/kg (see Table B-2) starting at 6 weeks after birth of the subject and continuing for 6 weeks. All animals were euthanized and necropsied at the end of week 12.
Determination of ALT, ALP, and total bilirubin was performed as conventional liver and kidney function tests at the clinical biochemistry core (BIDMC).

Each structure is given as a SMILES string.

Consider `COCCN(CCCCc1ccc2c(n1)NCCC2)CC[C@H](Nc1ncnc2ccccc12)C(=O)O` [Bexotegrast, (S)-4-((2-methoxyethyl)(4-(5,6,7,8-tetrahydro-1,8-naphthyridin-2-yl)butyl)amino)-2-(quinazolin-4-ylamino)butanoic acid], for which the “median liver stiffness by transient elastography (TE)” value in assay [1] is reported as “numerical reduction”; in assay [1] (listed as bexotegrast), “decrease”. Also, the “serum alkaline phosphatase levels” value in assay [2] (1000 mg/kg, vs vehicle) is “significantly decreased”. Besides, the “serum ALT levels” value in assay [2] (100, 300, 1000 mg/kg) is recorded as “did not change”. Besides, the “serum total bilirubin levels” value in assay [2] (100, 300, 1000 mg/kg) is listed as “dose dependent trend down”.

Values taken from patent US20250120975A1, “INTEGRIN INHIBITORS FOR TREATMENT OF PRIMARY SCLEROSING CHOLANGITIS” (Pliant Therapeutics, Inc., priority 2023, published 2025).
